Structures can show the parent of a compound that is named as a salt. Where two headings read alike, the source gives them in different places.

One series addresses T1, human ETA R (Homo sapiens, UniProt P25101).
T1 sequence (P25101 21-427): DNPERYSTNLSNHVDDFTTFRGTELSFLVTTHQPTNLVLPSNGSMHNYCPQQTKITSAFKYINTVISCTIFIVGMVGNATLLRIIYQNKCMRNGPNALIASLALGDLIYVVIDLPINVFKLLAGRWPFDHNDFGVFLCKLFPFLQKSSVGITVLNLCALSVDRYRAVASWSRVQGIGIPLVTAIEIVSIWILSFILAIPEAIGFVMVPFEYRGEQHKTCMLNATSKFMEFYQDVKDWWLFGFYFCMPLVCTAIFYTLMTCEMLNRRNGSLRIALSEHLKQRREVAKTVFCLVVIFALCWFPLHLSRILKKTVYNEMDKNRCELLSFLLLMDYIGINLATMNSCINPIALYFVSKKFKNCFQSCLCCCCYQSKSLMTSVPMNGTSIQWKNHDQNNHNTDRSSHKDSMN
Briefly: biochemical. Format: binding. To be noted: read-out: HERBA-A IC50. As to the method: (§1) The following cultured cells were used in binding experiments: CHO-K1 cells expressing recombinant human ETB R (HERBA B), or Ltk-cells expressing human ETA R (HERBA A). […] Membranes were prepared from cultured cells by lysing cells in cold lysis buffer (5 mM HEPES, 2 mM EDTA, pH 7.4) and homogenizing with a Dounce "A" homogenizer. […] Radioligand and competing ligands were prepared in binding buffer containing 20 mM Tris, 2 mM EDTA, and 0.1% BSA.
(§2) The assay was terminated by filtration over Whatman GF/B filters that were presoaked with 50 mM Tris, pH 7.4, containing 0.2% BSA and 100 μM bacitracin. […] binding was defined as total binding minus nonspecific binding.

For the next series, the target named is T2, recombinant human ETB R (Homo sapiens, UniProt P24530).
T2 sequence (P24530 27-442): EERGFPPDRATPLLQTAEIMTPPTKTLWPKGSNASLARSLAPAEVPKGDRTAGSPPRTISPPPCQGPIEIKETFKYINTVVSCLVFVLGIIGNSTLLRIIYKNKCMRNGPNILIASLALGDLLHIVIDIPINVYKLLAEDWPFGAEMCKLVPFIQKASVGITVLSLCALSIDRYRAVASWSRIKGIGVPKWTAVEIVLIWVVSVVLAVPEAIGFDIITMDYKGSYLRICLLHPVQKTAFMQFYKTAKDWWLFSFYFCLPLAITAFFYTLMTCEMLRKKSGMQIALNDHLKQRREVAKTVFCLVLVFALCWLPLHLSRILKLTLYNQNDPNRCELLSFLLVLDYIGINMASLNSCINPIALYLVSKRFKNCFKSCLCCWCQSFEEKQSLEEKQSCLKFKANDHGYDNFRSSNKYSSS
Briefly: biochemical. Format: binding. The settings on record: read-out: HERBA-B IC50. On the procedure:
as §1, §2

For series [1], the target named is T3, ET-1 stimulated vasoconstriction, rabbit femoral artery (Oryctolagus cuniculus, UniProt A5A8K3).
T3 sequence (A5A8K3 21-427): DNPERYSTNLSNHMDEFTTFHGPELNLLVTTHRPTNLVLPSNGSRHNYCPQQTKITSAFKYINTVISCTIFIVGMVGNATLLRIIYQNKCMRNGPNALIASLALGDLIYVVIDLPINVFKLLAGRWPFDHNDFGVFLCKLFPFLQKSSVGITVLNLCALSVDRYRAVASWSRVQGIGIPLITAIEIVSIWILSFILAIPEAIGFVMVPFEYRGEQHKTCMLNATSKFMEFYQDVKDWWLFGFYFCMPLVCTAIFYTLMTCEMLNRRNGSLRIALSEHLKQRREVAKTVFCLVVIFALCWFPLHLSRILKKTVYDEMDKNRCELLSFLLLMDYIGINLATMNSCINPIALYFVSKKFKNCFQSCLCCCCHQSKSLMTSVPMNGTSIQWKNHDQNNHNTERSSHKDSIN
To be noted: read-out: VERA-A pA2 (converted). From the text:
In vitro and in vivo studies with a series of hexapeptide endothelin antagonists. J. Cardiovasc. […] The data are presented as pA2 values.

A further series in a line: physchem. To be noted: water.
The subject of series [2] is cerebral hemisphere of cats following middle cerebral artery occlusion. To be noted: IV; cited from earlier work.
For series [3], the system named is rat hypoxia model of hypertension. To be noted: cited from earlier work.
Where [4] appears, read: human cloned receptor ETA, [125I]-ET-1 (40 pM), 2 hours, 37 °C.
The mark [5] stands for this setting: human cloned receptor ETB, [125I]-ET-1 (40 pM), 2 hours, 37 °C.

The IC50 is the point on the concentration scale where inhibition reaches its midpoint. Regarding `COc1ccc(C2(O)OC(=O)C(c3ccc4c(c3)OCO4)=C2Cc2cc(OC)c(OC)c(OCC(=O)NCCN3CCOCC3)c2)cc1` (stereo not drawn) [Example 3, 2-{5-[4-Benzo[1,3]dioxol-5-yl-2-hydroxy-2-(4-methoxy-phenyl)-5-oxo-2,5-dihydro-furan-3-ylmethyl]-2,3-dimethoxy-phenoxy}-N-(2-morpholin-4-yl-ethyl)-acetamide], the values for the IC50 on human ETA R (setting [4]) and on recombinant human ETB R (setting [5]) were 2 nM and above 2500 nM, respectively. As to `COc1ccc(C2(O)OC(=O)C(c3ccc4c(c3)OCO4)=C2Cc2cc(OC)c(OC)c(OCC(=O)NCCN3CCOCC3)c2)cc1` (stereo not drawn) [Example 4], the IC50 at human ETA R (setting [4]) worked out at 1 nM. The Kb in series [1] is 100 nM.

For the compound `COc1ccc(C2(O)OC(=O)C(c3ccc4c(c3)OCO4)=C2Cc2cc(OC)c(OCCN3CCOCC3)c(OCCN3CCOCC3)c2)cc1` (stereo not drawn) [Example 9, 3-Benzo[1,3]dioxol-5-yl-5-hydroxy-4-[3-methoxy-4,5-bis-(2-morpholin-4-yl-ethoxy)-benzyl]-5(4-methoxy-phenyl)-5H-furan-2-one 2-hydroxyethanesulfonate], the results for the IC50 on human ETA R (setting [4]) and on recombinant human ETB R (setting [5]) were 180 nM and above 25000 nM, respectively. As usually defined, the solubility is the dissolved amount per volume that the medium holds. High values mean much dissolved substance, low ones little dissolved substance. `COc1ccc(C2(O)OC(=O)C(c3ccc4c(c3)OCO4)=C2Cc2cc(OC)c(OC)c(OCCN(C)C)c2)cc1` (stereo not drawn) [Example 11, 3-Benzo[1,3]dioxyl-5-yl-4-[3-(2-dimethylamino-ethoxy)-4,5-dimethoxy-benzyl]-5-hydroxy-5-(4-methoxy-phenyl)-5H-furan-2-one 2-hydroxyethanesulfonate]: the solubility in the series “physchem” was above 25 mg/mL.

`COc1ccc(C2(O)OC(=O)C(c3cc(OC)cc(OC)c3)=C2Cc2cc(OC)c(OC)c(OCCN(C)C)c2)cc1` (stereo not drawn) [Example 16]: the values for the IC50 at human ETA R (setting [4]) and at recombinant human ETB R (setting [5]) were 2 nM and above 2500 nM, respectively. For `COc1ccc(C2(O)OC(=O)C(c3cc(OC)cc(OC)c3)=C2Cc2cc(OC)c(OC)c(OCCCN3CCN(C)CC3)c2)cc1` (stereo not drawn) [Example 17, 4-{3,4-Dimethoxy-5-[3-(4-methyl-piperazzin-1-yl)-propoxy]-benzyl}-3-(3,5-dimethoxy-phenyl)-5-hydroxy-5-(4-methoxy-phenyl)-5-hydroxy-5-(4-methoxy-phenyl)-5H-furan-2-one], the IC50 at human ETA R (setting [4]) is 12.5 nM; at recombinant human ETB R (setting [5]), above 2500 nM.

`COc1ccc(C2(O)OC(=O)C(c3ccc4c(c3)OCO4)=C2Cc2cc(OC)c(OC)c(OCCCS(=O)(=O)O)c2)cc1` (stereo not drawn) [Example 26]: in the series “physchem”, the solubility is above 80 mg/mL. Turning to `COc1cc(CC2=C(c3ccc4c(c3)OCO4)C(=O)OC2(O)c2ccc(OCCN3CCOCC3)cc2)cc(OC)c1OC` (stereo not drawn) [Example 27, 3-Benzo[1,3]dioxol-5-yl-5-hydroxy-5-[4-(2-morpholin-4-ethoxy)-phenyl]-4-(3,4,5-trimethoxy-benzyl)-5H-furan-2-one], the figures for the IC50 on human ETA R (setting [4]) and on recombinant human ETB R (setting [5]) were 14 nM and 3350 nM, respectively. With `COc1cc(CC2=C(c3ccc4c(c3)OCO4)C(=O)OC2(O)c2ccc(OCCN3CCOCC3)cc2)cc(OC)c1OC` (stereo not drawn) [Example 28, 3-Benzo[1,3]dioxol-5-yl-5-hydroxy-5-[4-(2-morpholin-4-yl-ethoxy)-phenyl]-4-(3,4,5-trimethoxy-benzyl)-5H-furan-2-one 2-hydroxyethanesulfonate], the IC50 worked out at 12 nM at human ETA R and 4100 nM at recombinant human ETB R (setting [5]). Regarding `COc1cc(CC2=C(c3ccc4c(c3)OCO4)C(=O)OC2(O)c2ccc(OCCCN(C)C)cc2)cc(OC)c1OC` (stereo not drawn) [Example 29, 3-Benzo[1,3]dioxol-5-yl-5-[4-(3-dimethylamino-propoxy)-phenyl]-5-hydroxy-4-(3,4,5-trimethoxy-benzyl)-5H-furan-2-one], the IC50 on human ETA R (setting [4]) was 40 nM; on recombinant human ETB R (setting [5]), 17000 nM.

For `COc1cc(CC2=C(c3ccc4c(c3)OCO4)C(=O)OC2(O)c2ccc(OCCCN(C)C)cc2)cc(OC)c1OC` (stereo not drawn) [Example 30, 3-Benzo[1,3]dioxol-5-yl-5-[4-(3-dimethylamino-propoxy)-phenyl]-5-hydroxy-4-(3,4,5-trimethoxy-benzyl)-5H-furan-2-one 2-hydroxyethanesulfonate], the IC50 is 180 nM at human ETA R (setting [4]) and above 2500 nM on recombinant human ETB R (setting [5]). As for `CNc1cccc(CC2=C(c3ccc4c(c3)OCO4)C(=O)OC2(O)c2ccc(OC)cc2)c1` (stereo not drawn) [Example 31, 3-Benzo[1,3]dioxol-5-yl-5-hydroxy-5-(4-methoxy-phenyl)-4-(3-methylamino-benzyl)-5H-furan-2-one], the IC50 at human ETA R (setting [4]) came to 2 nM; on recombinant human ETB R (setting [5]), 2700 nM. With `COc1ccc(C2(O)OC(=O)C(c3ccc4c(c3)OCO4)=C2Cc2cccc(CN(C)C)c2)cc1` (stereo not drawn) [Example 32], the values for the IC50 on human ETA R (setting [4]) and on recombinant human ETB R (setting [5]) were 4 nM and 900 nM, respectively. `COc1ccc(C2(O)OC(=O)C(c3ccc4c(c3)OCO4)=C2Cc2cccc(CN(C)C)c2)cc1` (stereo not drawn) [Example 33, 3-Benzo[1,3]dioxol-5-yl-4-(3-dimethylaminomethyl-benzyl)-5-hydroxy-5-(4-methoxy-phenyl)-5H-furan-2-one 2-hydroxyethanesulfonate]: the IC50 at human ETA R (setting [4]) stood at 1.2 nM; on recombinant human ETB R (setting [5]) it was 470 nM. In addition, in series [1] (ET-1 stimulated vasoconstriction, rabbit femoral artery), the Kb is 200 nM. Take `COc1ccc(C2(O)OC(=O)C(c3cc(OC)c4c(c3)OCO4)=C2Cc2cccc(CN(C)C)c2)cc1` (stereo not drawn) [Example 34, 4-(3-Dimethylaminomethyl-benzyl)-5-hydroxy-3-(7-methoxy-benzo[1,3]dioxol-5-yl)-5-(4-methoxy-phenyl)-5H-furan-2-one]: the IC50 amounted to 0.6 nM at human ETA R (setting [4]) and 110 nM at recombinant human ETB R (setting [5]).

`COc1ccc(C2(O)OC(=O)C(c3cc(OC)c4c(c3)OCO4)=C2Cc2cccc(CN(C)C)c2)cc1` (stereo not drawn) [Example 35, 4-(3-Dimethylaminomethyl-benzyl)-5-hydroxy-3-(7-methoxy-benzo[1,3]dioxol-5-yl)-5-(4-methoxy-phenyl)-5H-furan-2-one 2-hydroxyethanesulfonate]: the figures for the IC50 at human ETA R (setting [4]) and on recombinant human ETB R (setting [5]) were 1 nM and 210 nM, respectively. For `COc1ccc(C2(O)OC(=O)C(c3ccc4c(c3)OCO4)=C2Cc2cc(OC)c(OC)c(OCCN3CCOCC3)c2)cc1` (stereo not drawn) [Example 37, 3-Benzo[1,3]dioxol-5-yl-4-[3,4-dimethoxy-5-(2-morpholin-4-yl-ethoxy)-benzyl]-5-hydroxy-(4-methoxy-phenyl)-5-furan-2-one 2-hydroxyethanesulfonate], the solubility in the series “physchem” is above 25 mg/mL. Take `COc1ccc(C2(O)OC(=O)C(c3ccc4c(c3)OCO4)=C2Cc2cc(OC)c(OC)c(OC)c2)c(OCCCN(C)C)c1` (stereo not drawn) [Example 38, 3Benzo[1,3]dioxol-5-yl-5-[2-(3-dimethylamino-propoxy)-4-methoxy-phenyl]-5-hydroxy-4-(3,4,5-trimethoxy-benzyl)-5H-furan-2-one]: the IC50 at human ETA R (setting [4]) came out at 1 nM; on recombinant human ETB R (setting [5]), 800 nM. Besides, the Kb in series [1] is 100 nM. Regarding `COc1ccc(C2(O)OC(=O)C(c3ccc4c(c3)OCO4)=C2Cc2cc(OC)c(OC)c(OC)c2)cc1` (stereo not drawn) [PD 156707], the “volume of ischemic damage in the cerebral hemisphere” value in series [2] was “significantly reduced”. Further, the “pulmonary vascular resistance and pulmonary arterial pressure” value in series [3] is “provide protection in a rat hypoxia model of hypertension by lowering the increase in pulmonary vascular resistance and pulmonary arterial pressure”.

As for `COc1ccc(C(=O)C(Cc2cccc(CN(C)C)c2)=C(C(=O)O)c2cc(OC)c3c(c2)OCO3)cc1` [sodium salt], the IC50 on human ETA R was 2 nM; on recombinant human ETB R it was 300 nM.

(Values after patent US6297274A, “Nonpeptide endothelin antagonists with increased water solubility” (priority 1998, dated 2001).)
